Converted amounts (≈) assume the structure as drawn.
Experiments:
[1] = target: T1, CDK4/cyclin D1 (Homo sapiens, UniProt P11802); experiment: Enzyme activity assay CDK4/cyclin D1 (Lance Ultra); type: biochemical; conditions: 0.3 nM CDK4/cyclin D1, 350 μM ATP, 180 minutes
T1 construct: purchased Life technology
Experimental: CDK4/cyclin D1, CDK6/cyclin D1 (Life technology). ULight labeled polypeptide substrates ULight-4E-BP1 and ULight-MBP (PerkinElmer). Europium labeled anti-myelin basic protein antibody and europium labeled rabbit-derived antibody (PerkinElmer). Envision Multi-label Analyzer (PerkinElmer) for signal detection.
They were respectively dissolved in an enzyme buffer solution comprising: 50 mM hydroxyethylpiperazine ethanesulfuric acid solution at pH 7.5, 1 mM ethylenediaminetetraacetic acid, 10 mM magnesium chloride, 0.01% Brij-35, 2 mM dithiothreitol. After the reaction was begun, the OptiPlate 384-well plate was sealed with a top heat seal film TopSeal-A, and incubated at room temperature for 180 minutes.
The termination buffer solution of the enzymatic reaction was prepared, and EDTA was dissolved in a 1-fold diluted assay buffer solution. The reaction was terminated and incubated at room temperature for 5 minutes. 5 μL of the assay mixed solution (prepared with europium labeled anti-myelin basic protein antibody and europium labeled rabbit-derived antibody, respectively) was added to the reactions of CDK4/cyclin D1 and CDK6/cyclin D1, respectively, and incubated at room temperature for 60 minutes. The reaction signal was detected by Envision according to the time-resolved fluorescence resonance energy transfer theory.

[2] = test system: NCI-H358 cells; experiment: Cell viability assay NCI-H358 (CellTiter-Glo); type: cell-based; conditions: Homo sapiens, 168 h; NCI-H358, incubated for 7 days
Experimental: The NCI-H358 cell line is from the cell bank of the Department of Biology of WuXi Apptec Co. Ltd. Envision Multi-Label Analyzer (PerkinElmer).
1) 100 μL of phosphate buffer solution was added to the peripheral wells of the 384-well plate and 40 μL of NCI-H358 cell suspension was added to the other wells containing 250 NCI-H358 cells. The cell plate was then placed in a carbon dioxide incubator and incubated overnight.
2) A 3-fold gradient dilution was subjected to the tested compounds using Echo. Each compound was diluted by 10 concentration gradients (diluted from 25 μM to 1.27 nM), 100 nL of which was added to the corresponding wells of the cell plate. The cell plate was then placed in a carbon dioxide incubator and incubated for 7 days.
3) 20 μL of Promega CellTiter-Glo reagent was added to each well of the cell plate, and shaken for 10 minutes away from light at room temperature to stabilize the luminescence signal. Readings were performed using a PerkinElmer Envision Multi-label Analyzer.
Table 1 provides the inhibitory activity of the compounds of the present invention against the proliferation of H358 cells.

[3] = Metabolic stability in rat liver microsomes; type: in vitro ADME; conditions: 0.5 mg/mL protein, read-out: Rats T1/2
Experimental: This assay is used to test the metabolic stability of tested substances in rats, mice and human liver microsomes.
1) The tested compound with concentration of 1 μM was co-incubated with liver microsomes with a protein concentration of 0.5 mg/mL under a reducing coenzyme II regeneration system in a 37° C. water bath.
2) The positive controls include: testosterone (3A4 substrate), propafenene (2D6 substrate) and diclofenac (2C9 substrate). The incubation condition of the positive controls was consistent with that of the compound.
3) The reaction time points were: 0, 5, 10, 20, 30 and 60 minutes, and the reaction is terminated at the corresponding time point using a termination solution containing an internal standard. The compounds were also incubated with microsomes for 60 minutes without a reducing coenzyme II regeneration system and served as a negative control.
4) Each time point was a single point (n=1).
5) The sample was determined by LC/MS/MS, and the compound concentration was shown as the ratio of the peak area of the compound to the peak area of the internal standard (non-standard).
6) In the project report summary, the half-life and the clearance rate would be calculated.

[4] = test system: non-small cell lung cancer NCI-H358 model; experiment: In vivo pharmacodynamic study (2), NCI-H358 model, tumor volume; parameters: species or system BALB/c nude mice; conditions: for Gross tumor volume (Day 1): Day 1, Table 6-2; for Gross tumor volume (Day 28): Day 28, Table 6-2
Experimental: The in vivo pharmacodynamic experiments were performed on the BALB/c nude mice implanted subcutaneously with the non-small cell lung cancer NCI-H358 model.
All of the cages, beddings and water were disinfected before use. All of the animals were permitted free access to a standard certified commercial laboratory diet. A total of 86 mice purchased from Vital River Laboratory Animal Co., LTD, Beijing were used for the study. The animal information of the experiments in Example 34 was as follows: BALB/c nude mice, female, 6-8 weeks, weighing approximately 16-18 g, were placed in a single ventilated cage (4 mice per cage) under a special pathogen free environment. All of the cages, beddings and water were disinfected before use. All of the animals were permitted free access to a standard certified commercial laboratory diet. A total of 56 mice purchased from Shanghai Lingchang Biotechnology Co., Ltd. were used for the study.
Each mouse was implanted subcutaneously with NCI-H358 tumor cells in the right back for tumor growth. The dosing initiated when the average tumor volume reached about 100-200 mm^3. […] The tumor volume was measured twice a week using a two-dimensional caliper, and the volume was measured in mm^3, calculated by the following the formula: V=0.5 a×b^2, wherein, a and b were the long and short diameters of the tumor, respectively. The antitumor efficacy was determined by dividing the average increase in the tumor volume of the animals treated with the compound by the average increase in the tumor volume of the untreated animals, and the safety of the compound was determined by the change in the body weight of the animal treated with the compound.
TGI: Tumor Growth Inhibition.

[5] = physchem; conditions: phosphate buffer, pH 7.4, aqueous buffer, kinetic from dmso stock
[6] = Two-way permeability evaluation assay of Caco-2 cells; conditions: human, Caco-2, pH 7.4
[7] = test system: Caco-2 cells; experiment: as above; conditions: Caco-2

T1 sequence (P11802 whole entry): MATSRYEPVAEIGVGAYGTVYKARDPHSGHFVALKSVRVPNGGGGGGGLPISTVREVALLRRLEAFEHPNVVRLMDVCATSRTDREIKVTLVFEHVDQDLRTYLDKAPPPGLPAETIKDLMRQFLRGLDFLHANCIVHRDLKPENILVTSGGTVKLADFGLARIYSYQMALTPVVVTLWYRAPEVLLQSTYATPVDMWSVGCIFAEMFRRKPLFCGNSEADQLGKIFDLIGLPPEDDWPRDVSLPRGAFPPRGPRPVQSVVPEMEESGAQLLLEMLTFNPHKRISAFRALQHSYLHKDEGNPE
T1 sequence (P24385 whole entry partner): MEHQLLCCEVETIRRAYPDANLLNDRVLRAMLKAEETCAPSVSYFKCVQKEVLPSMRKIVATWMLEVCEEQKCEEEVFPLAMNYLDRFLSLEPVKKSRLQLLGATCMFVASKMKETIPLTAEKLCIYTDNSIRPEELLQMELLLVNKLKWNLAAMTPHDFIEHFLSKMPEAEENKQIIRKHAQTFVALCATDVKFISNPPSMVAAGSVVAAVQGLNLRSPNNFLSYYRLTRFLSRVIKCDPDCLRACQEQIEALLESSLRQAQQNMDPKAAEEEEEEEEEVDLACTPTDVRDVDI

SMILES: CC(=O)c1c(C)c2cnc(Nc3cnc(N4CCN(CCN(C)C)CC4)cn3)cc2n(C2CCCC2)c1=O [Example 34]
- IC50 [1]: 7.45 nM
- IC50 [2]: 179 nM
- half-life at 1 μM [3]: > 2.42 h
- Gross tumor volume (Day 1) ([4]; 20 mg/kg orally daily): 149 ± 18 mm^3
- TGI (Day 28) ([4]; 20 mg/kg orally daily): 15.3%
- Gross tumor volume (Day 28) ([4]; 20 mg/kg orally daily): 940 ± 70 mm^3
- Gross tumor volume (Day 1) ([4]; 60 mg/kg orally daily): 169 ± 27 mm^3
- TGI (Day 28) ([4]; 60 mg/kg orally daily): 32.1%
- Gross tumor volume (Day 28) ([4]; 60 mg/kg orally daily): 804 ± 103 mm^3
- Gross tumor volume (Day 1) ([4]; 150 mg/kg orally daily): 149 ± 18 mm^3
- TGI (Day 28) ([4]; 150 mg/kg orally daily): 92.9%
- Gross tumor volume (Day 28) ([4]; 150 mg/kg orally daily): 215 ± 34 mm^3
- solubility kinetic at 24 h [5]: 194 µM (≈ 101 µg/mL)
- Papp A→B at 2 h, 2 μM [6]: 1.15 ×10⁻⁶ cm/s
- Papp B→A at 2 h, 2 μM [6]: 16 ×10⁻⁶ cm/s
- efflux ratio at 2 h, 2 μM [6]: 14
- Category Efflux transporter substrate [7]: Highly
- Category Permeability [7]: Low
